What was measured:
[1] = target: Mitogen-activated protein kinase kinase kinase kinase 1 (Homo sapiens) (UniProt Q92918); conditions: Compound concentration 1000.0 nM
[2] = target: Hormonally up-regulated neu tumor-associated kinase (Homo sapiens) (UniProt P57058); conditions: Compound concentration 1000.0 nM
[3] = target: Phosphatidylinositol 4-phosphate 3-kinase C2 domain-containing subunit beta (Homo sapiens) (UniProt O00750); conditions: Compound concentration 1000.0 nM
[4] = target: Leucine-rich repeat serine/threonine-protein kinase 2 (Homo sapiens) (UniProt Q5S007); conditions: Compound concentration 1000.0 nM
Chain of Leucine-rich repeat serine/threonine-protein kinase 2 (Homo sapiens) (Q5S007 whole entry): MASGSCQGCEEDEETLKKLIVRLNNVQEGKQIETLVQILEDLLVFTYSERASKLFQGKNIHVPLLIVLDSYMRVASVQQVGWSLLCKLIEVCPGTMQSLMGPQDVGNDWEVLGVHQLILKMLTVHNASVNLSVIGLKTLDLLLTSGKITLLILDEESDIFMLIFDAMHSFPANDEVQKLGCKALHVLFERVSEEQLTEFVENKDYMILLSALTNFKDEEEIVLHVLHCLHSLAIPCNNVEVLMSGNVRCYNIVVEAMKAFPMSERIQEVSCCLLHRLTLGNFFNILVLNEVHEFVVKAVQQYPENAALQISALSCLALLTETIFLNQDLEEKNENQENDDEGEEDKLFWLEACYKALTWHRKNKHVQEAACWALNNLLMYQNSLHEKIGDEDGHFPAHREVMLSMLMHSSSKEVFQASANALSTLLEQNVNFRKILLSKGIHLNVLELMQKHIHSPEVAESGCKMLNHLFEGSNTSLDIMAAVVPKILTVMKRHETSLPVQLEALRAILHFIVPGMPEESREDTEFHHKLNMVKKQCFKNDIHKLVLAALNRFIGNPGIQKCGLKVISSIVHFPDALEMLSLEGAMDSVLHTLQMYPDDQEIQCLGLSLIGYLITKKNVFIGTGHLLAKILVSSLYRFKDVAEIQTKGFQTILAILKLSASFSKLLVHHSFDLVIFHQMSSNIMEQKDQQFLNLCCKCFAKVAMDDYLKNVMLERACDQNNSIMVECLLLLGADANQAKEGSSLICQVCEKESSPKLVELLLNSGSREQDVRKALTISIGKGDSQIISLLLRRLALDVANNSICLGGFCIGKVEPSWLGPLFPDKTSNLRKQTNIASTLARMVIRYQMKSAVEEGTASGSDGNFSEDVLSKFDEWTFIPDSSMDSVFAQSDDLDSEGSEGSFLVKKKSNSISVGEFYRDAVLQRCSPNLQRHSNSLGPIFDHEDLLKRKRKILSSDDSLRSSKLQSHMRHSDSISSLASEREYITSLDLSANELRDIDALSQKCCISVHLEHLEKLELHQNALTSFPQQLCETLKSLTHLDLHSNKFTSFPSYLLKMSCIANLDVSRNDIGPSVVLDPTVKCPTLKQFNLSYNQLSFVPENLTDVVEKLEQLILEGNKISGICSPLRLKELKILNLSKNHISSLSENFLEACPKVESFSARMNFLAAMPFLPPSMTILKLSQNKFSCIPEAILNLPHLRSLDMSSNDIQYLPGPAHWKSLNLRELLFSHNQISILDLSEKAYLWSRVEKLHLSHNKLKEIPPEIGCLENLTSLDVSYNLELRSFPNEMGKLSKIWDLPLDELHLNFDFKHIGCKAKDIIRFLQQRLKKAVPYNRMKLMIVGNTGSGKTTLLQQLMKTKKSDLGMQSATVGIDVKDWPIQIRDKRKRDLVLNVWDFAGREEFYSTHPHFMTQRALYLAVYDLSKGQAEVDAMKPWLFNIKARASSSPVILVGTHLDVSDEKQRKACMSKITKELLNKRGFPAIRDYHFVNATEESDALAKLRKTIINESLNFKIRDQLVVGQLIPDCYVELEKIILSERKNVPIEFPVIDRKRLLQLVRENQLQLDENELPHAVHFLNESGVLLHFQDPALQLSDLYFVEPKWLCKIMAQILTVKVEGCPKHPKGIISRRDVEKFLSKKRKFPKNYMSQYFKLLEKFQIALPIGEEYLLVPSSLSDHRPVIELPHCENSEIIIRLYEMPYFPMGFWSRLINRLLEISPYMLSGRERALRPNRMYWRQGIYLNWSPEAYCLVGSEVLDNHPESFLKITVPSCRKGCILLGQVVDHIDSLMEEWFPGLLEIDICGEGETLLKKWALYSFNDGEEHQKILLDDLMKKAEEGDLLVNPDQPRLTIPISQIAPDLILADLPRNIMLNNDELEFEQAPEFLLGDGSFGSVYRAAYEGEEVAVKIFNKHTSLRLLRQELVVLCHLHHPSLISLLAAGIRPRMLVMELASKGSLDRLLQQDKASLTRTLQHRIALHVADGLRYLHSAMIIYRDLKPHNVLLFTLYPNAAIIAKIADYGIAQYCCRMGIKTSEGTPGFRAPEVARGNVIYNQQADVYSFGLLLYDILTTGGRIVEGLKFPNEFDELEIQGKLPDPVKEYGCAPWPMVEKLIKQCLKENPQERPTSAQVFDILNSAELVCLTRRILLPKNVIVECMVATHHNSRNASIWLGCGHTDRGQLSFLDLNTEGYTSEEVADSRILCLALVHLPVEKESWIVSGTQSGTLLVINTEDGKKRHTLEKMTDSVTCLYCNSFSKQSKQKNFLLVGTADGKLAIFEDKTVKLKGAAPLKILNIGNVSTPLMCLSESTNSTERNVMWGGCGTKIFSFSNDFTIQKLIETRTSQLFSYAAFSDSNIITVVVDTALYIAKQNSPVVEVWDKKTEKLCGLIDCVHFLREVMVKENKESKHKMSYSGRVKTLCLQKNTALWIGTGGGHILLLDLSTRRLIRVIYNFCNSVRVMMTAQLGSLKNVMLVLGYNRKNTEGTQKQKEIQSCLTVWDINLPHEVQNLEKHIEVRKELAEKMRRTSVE

[5] = target: Serine/threonine-protein kinase PAK 3 (Homo sapiens) (UniProt O75914); conditions: Compound concentration 1000.0 nM
Chain of Serine/threonine-protein kinase PAK 3 (Homo sapiens) (O75914 whole entry, looked up): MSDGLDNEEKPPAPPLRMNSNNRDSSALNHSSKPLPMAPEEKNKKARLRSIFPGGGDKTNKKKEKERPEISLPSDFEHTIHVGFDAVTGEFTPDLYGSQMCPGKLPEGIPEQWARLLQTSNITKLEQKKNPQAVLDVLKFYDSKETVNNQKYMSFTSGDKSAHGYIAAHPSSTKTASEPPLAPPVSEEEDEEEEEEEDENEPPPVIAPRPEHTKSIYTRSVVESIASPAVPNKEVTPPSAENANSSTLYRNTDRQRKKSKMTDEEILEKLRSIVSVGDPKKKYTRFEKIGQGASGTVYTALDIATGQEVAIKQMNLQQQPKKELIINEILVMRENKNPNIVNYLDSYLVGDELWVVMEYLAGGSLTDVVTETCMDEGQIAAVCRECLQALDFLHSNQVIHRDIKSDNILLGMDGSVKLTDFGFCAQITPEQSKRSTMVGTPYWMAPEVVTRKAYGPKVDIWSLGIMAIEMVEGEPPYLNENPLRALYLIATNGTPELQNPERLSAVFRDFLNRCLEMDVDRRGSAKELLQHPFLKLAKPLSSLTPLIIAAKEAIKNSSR

[6] = target: Transient receptor potential cation channel subfamily M member 6 (Homo sapiens) (UniProt Q9BX84); conditions: Compound concentration 1000.0 nM
[7] = target: 5-hydroxytryptamine receptor 1A (Homo sapiens) (UniProt P08908); conditions: Compound concentration 10.0 uM
[8] = system: Phosphatidylinositol 4,5-bisphosphate 3-kinase catalytic subunit alpha isoform (Homo sapiens), P42336 [H1047L]; conditions: Compound concentration 1000.0 nM
[9] = target: Ribosomal protein S6 kinase alpha-5 (Homo sapiens) (UniProt O75582); conditions: Compound concentration 1000.0 nM
Chain of Ribosomal protein S6 kinase alpha-5 (Homo sapiens) (O75582 whole entry, looked up): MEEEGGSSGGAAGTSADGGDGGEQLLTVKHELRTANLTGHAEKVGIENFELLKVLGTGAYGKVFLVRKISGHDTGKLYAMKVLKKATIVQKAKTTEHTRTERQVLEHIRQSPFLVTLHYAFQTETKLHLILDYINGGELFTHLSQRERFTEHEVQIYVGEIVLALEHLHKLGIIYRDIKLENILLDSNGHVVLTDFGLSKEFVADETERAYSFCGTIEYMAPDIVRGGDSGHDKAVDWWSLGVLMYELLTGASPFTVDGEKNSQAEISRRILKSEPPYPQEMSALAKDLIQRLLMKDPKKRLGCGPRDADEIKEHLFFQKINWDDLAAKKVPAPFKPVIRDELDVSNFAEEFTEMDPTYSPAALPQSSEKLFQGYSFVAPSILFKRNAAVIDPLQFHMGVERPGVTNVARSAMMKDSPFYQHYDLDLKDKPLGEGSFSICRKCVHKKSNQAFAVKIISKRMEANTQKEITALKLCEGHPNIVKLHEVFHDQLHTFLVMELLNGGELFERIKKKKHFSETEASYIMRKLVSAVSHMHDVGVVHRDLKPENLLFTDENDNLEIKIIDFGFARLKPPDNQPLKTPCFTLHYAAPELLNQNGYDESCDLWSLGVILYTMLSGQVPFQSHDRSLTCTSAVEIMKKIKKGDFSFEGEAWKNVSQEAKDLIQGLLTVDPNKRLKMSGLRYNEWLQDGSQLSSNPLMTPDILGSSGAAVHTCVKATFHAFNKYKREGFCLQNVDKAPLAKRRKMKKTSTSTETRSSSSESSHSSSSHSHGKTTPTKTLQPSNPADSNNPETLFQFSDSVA

[10] = target: Serine/threonine-protein kinase ULK1 (Homo sapiens) (UniProt O75385); conditions: Compound concentration 1000.0 nM
[11] = target: Serine/threonine-protein kinase Nek10 (Homo sapiens) (UniProt Q6ZWH5); conditions: Compound concentration 1000.0 nM
[12] = target: Vascular endothelial growth factor receptor 3 (Homo sapiens) (UniProt P35916); conditions: Compound concentration 1000.0 nM
[13] = system: Phosphatidylinositol 4,5-bisphosphate 3-kinase catalytic subunit alpha isoform (Homo sapiens), P42336 [M1043I]; conditions: Compound concentration 1000.0 nM
[14] = system: Leucine-rich repeat serine/threonine-protein kinase 2 (Homo sapiens), Q5S007 [G2019S]; conditions: Compound concentration 1000.0 nM
Chain of Leucine-rich repeat serine/threonine-protein kinase 2 (Homo sapiens), Q5S007 [G2019S] (Q5S007 whole entry G2019S): as the sequence (Q5S007 whole entry) above, with G2019S counted along it

[15] = target: MAP kinase-activated protein kinase 5 (Homo sapiens) (UniProt Q8IW41); conditions: Compound concentration 1000.0 nM
[16] = target: Cyclin-dependent kinase 11A (Homo sapiens) (UniProt Q9UQ88); conditions: Compound concentration 1000.0 nM
[17] = system: Tyrosine-protein kinase ABL1 (Homo sapiens), P00519 [Y253F]; conditions: Compound concentration 1000.0 nM
[18] = target: Tyrosine-protein kinase Srms (Homo sapiens) (UniProt Q9H3Y6); conditions: Compound concentration 1000.0 nM
[19] = target: Serine/threonine-protein kinase PAK 6 (Homo sapiens) (UniProt Q9NQU5); conditions: Compound concentration 1000.0 nM
[20] = target: Ephrin type-A receptor 1 (Homo sapiens) (UniProt P21709); conditions: Compound concentration 1000.0 nM
[21] = target: T1, Alpha-2A adrenergic receptor (Homo sapiens) (UniProt P08913); conditions: Compound concentration 10.0 uM
T1 sequence (whole entry): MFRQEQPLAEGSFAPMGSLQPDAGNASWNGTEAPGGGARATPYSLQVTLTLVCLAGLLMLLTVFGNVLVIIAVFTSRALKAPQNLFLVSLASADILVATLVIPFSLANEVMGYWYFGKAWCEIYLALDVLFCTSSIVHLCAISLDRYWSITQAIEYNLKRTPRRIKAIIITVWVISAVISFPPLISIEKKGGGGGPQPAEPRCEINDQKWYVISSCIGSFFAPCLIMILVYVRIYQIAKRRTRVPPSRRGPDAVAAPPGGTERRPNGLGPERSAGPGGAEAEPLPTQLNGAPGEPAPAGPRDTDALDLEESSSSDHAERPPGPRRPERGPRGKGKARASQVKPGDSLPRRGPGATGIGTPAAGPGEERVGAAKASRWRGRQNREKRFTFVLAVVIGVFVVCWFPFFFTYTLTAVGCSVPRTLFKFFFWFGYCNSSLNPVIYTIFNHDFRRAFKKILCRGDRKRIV

[22] = target: Receptor-interacting serine/threonine-protein kinase 4 (Homo sapiens) (UniProt P57078); conditions: Compound concentration 1000.0 nM
[23] = target: G protein-coupled receptor kinase 3 (Homo sapiens) (UniProt P35626); conditions: Compound concentration 1000.0 nM
[24] = system: ALK tyrosine kinase receptor (Homo sapiens), Q9UM73 [C1156Y]; conditions: Compound concentration 1000.0 nM
[25] = target: Serine/threonine-protein kinase NLK (Homo sapiens) (UniProt Q9UBE8); conditions: Compound concentration 1000.0 nM
[26] = target: Mitogen-activated protein kinase 12 (Homo sapiens) (UniProt P53778); conditions: Compound concentration 1000.0 nM
[27] = target: Phosphatidylinositol 5-phosphate 4-kinase type-2 beta (Homo sapiens) (UniProt P78356); conditions: Compound concentration 1000.0 nM
[28] = target: Mitogen-activated protein kinase 11 (Homo sapiens) (UniProt Q15759); conditions: Compound concentration 1000.0 nM
[29] = target: Mitogen-activated protein kinase kinase kinase 7 (Homo sapiens) (UniProt O43318); conditions: Compound concentration 1000.0 nM
[30] = target: Serine/threonine-protein kinase TAO1 (Homo sapiens) (UniProt Q7L7X3); conditions: Compound concentration 1000.0 nM
[31] = target: Aurora kinase A (Homo sapiens) (UniProt O14965); conditions: Compound concentration 1000.0 nM
[32] = target: Casein kinase II subunit alpha' (Homo sapiens) (UniProt P19784); conditions: Compound concentration 1000.0 nM
[33] = target: Mitogen-activated protein kinase kinase kinase 14 (Homo sapiens) (UniProt Q99558); conditions: Compound concentration 1000.0 nM
[34] = target: Ephrin type-A receptor 8 (Homo sapiens) (UniProt P29322); conditions: Compound concentration 1000.0 nM
[35] = target: Dual specificity testis-specific protein kinase 1 (Homo sapiens) (UniProt Q15569); conditions: Compound concentration 1000.0 nM
[36] = target: Platelet-derived growth factor receptor beta (Homo sapiens) (UniProt P09619); conditions: Compound concentration 1000.0 nM
Chain of Platelet-derived growth factor receptor beta (Homo sapiens) (P09619 whole entry): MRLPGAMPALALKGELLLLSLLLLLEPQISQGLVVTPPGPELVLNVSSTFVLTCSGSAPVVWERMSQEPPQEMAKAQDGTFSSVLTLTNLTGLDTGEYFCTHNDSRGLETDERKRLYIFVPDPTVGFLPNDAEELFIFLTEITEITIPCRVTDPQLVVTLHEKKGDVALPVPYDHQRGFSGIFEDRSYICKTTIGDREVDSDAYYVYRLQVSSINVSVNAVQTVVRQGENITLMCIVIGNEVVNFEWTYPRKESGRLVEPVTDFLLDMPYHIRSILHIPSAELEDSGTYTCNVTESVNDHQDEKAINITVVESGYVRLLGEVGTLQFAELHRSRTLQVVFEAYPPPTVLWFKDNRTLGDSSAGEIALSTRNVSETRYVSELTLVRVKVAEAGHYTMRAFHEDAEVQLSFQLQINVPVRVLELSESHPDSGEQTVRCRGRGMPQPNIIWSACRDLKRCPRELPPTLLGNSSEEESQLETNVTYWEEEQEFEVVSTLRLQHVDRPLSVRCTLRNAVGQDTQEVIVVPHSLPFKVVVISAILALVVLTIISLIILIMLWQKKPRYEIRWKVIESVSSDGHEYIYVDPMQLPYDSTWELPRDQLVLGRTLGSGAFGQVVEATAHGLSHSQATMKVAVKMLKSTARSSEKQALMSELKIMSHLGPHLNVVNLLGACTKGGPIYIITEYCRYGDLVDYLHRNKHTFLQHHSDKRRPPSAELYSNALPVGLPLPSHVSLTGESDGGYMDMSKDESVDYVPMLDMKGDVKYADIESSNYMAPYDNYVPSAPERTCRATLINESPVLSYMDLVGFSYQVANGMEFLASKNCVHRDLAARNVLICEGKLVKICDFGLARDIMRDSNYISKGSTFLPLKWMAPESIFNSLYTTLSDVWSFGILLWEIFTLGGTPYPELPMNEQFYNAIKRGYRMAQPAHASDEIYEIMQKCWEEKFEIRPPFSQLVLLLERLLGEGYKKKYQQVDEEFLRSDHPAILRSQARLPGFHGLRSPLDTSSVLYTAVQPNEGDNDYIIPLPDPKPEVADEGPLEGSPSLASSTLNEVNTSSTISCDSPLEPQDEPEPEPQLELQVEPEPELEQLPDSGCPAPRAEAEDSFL

[37] = target: 5-hydroxytryptamine receptor 6 (Homo sapiens) (UniProt P50406); conditions: Compound concentration 10.0 uM
[38] = target: Serine/threonine-protein kinase TBK1 (Homo sapiens) (UniProt Q9UHD2); conditions: Compound concentration 1000.0 nM

| SMILES | residual activity [1] | residual activity [2] | residual activity [3] | residual activity [4] | residual activity [5] | residual activity [6] | inhibition [7] | residual activity [8] | residual activity [9] | residual activity [10] | residual activity [11] | residual activity [12] | residual activity [13] | residual activity [14] | residual activity [15] | residual activity [16] | residual activity [17] | residual activity [18] | residual activity [19] | residual activity [20] | further results |
| --- | --- | --- | --- | --- | --- | --- | --- | --- | --- | --- | --- | --- | --- | --- | --- | --- | --- | --- | --- | --- | --- |
| C[C@@H](c1cccc(C#N)c1)n1cc(Cl)cc(C(N)=O)c1=N [(S)-9s] | 96% | 100% | 96% | 100% | 94% | 71% | 1.02% | 96% | 93% | 72% | 91% | 89% | 100% | 100% | 93% | 90% | 85% | 83% | 86% | 77% | inhibition [21]: -1.01%; residual activity [22]: 57%; residual activity [23]: 81%; residual activity [24]: 98%; residual activity [25]: 91%; residual activity [26]: 73%; residual activity [27]: 73%; residual activity [28]: 93%; residual activity [29]: 100%; residual activity [30]: 89%; residual activity [31]: 96%; residual activity [32]: 100%; residual activity [33]: 93%; residual activity [34]: 90%; residual activity [35]: 74%; residual activity [36]: 84%; inhibition [37]: 7.75%; residual activity [38]: 89% |
| C[C@H](c1cccc(C#N)c1)n1cc(Cl)cc(C(N)=O)c1=N [(R)-9s] | 100% | 89% | 100% | 100% | 88% | 83% | -4.95% | 92% | 92% | 78% | 99% | 80% | 100% | 100% | 84% | 100% | 88% | 75% | 100% | 97% | inhibition [21]: 4.64%; residual activity [22]: 71%; residual activity [23]: 76%; residual activity [24]: 89%; residual activity [25]: 44%; residual activity [26]: 100%; residual activity [27]: 52%; residual activity [28]: 100%; residual activity [29]: 77%; residual activity [30]: 90%; residual activity [31]: 97%; residual activity [32]: 100%; residual activity [33]: 62%; residual activity [34]: 95%; residual activity [35]: 86%; residual activity [36]: 83%; inhibition [37]: 6.03%; residual activity [38]: 98% |

Reference: ChEMBL document CHEMBL4507301 (2021)
